Measurements taken from patent publication US20150051273A1, “USE OF DELPHINIDIN AGAINST STAPHYLOCOCCUS AUREUS” (Sapiotec GmbH, priority 2012, published 2015).
“Also recorded” adds a separate entry of the source.

What was measured:
[1] = Solubility of delphinidin chloride in aqueous cyclodextrin solutions; type: physicochemical; settings: pure water, cyclodextrin concentration 0; excess delphinidin chloride, 30° C., 20 h, dark, 0.22 μm filter
Procedure: In this example, the complexing of delphinidin by different cyclodextrins and the solubility of the complex in aqueous solution are investigated.
Neutral aqueous solutions were prepared, containing 10 wt % of the respective cyclodextrin.
5 ml each of the aqueous cyclodextrin solutions and of pure water were introduced into glass flasks. Then an excess of delphinidin chloride was added.
The suspensions were stirred in the dark at 30° C. for 20 h. This was followed by filtration through a membrane filter with a 0.22 μm pore size.

[2] = tested on: Pseudomonas aeruginosa ATCC9027; assay: Biofilm formation, static model, crystal violet assay; type: cell-based; settings: P. aeruginosa, RPMI-1640, 37° C., 48 hours
Procedure: (§1) The strains selected were as follows: • Pseudomonas aeruginosa ATCC9027, biofilm-positive clinical isolate from an outer ear infection (reference strain);
(§2) The growth and the analysis of the biofilm were determined in a static model by means of the crystal violet assay according to basic protocol 1 in Current Protocols in Microbiology 1B.1.2-1B.1.4 “MICROTITER PLATE BIOFILM ASSAY” [published online August 2011 in Wiley Online Library (wileyonlinelibrary.com) DOI: 10.1002/9780471729259. mc01b01s22].
Investigating the effect of delphinidin on the bacterial growth and the bacterial formation of biofilm took place by means of • a) visual evaluation of bacterial growth (static model), • b) vitality test (scrape on blood agar plates) • c) analysis of the biofilm in a static model by means of the crystal violet assay as described above in section 1. […]
(§3) With the same experimental setup, the biofilm was analyzed by means of the crystal violet test as described above in section 1, the outcome thereof, after 48 hours of incubation and the crystal violet test, is shown overall in FIG. 8, and in FIGS. 9-13 in each case after measurement of the optical density, processed graphically for the respective delphinidin concentrations in the case of the individual bacterial strains (FIG. 9: P. aeruginosa ATCC9027, FIG. 10: K. pneumoniae ATCC700603, FIG. 11: MRSA2318, FIG. 12: MRSA2855, FIG. 13: MSSA1155).

[3] = tested on: Pseudomonas aeruginosa ATCC9027; assay: Bacterial growth, static model (visual evaluation, vitality test); type: cell-based; settings: P. aeruginosa; RPMI-1640, 37° C., 48 hours
From the text: as §1
(§4) Investigating the effect of delphinidin on the bacterial growth and the bacterial formation of biofilm took place by means of • a) visual evaluation of bacterial growth (static model), • b) vitality test (scrape on blood agar plates) • c) analysis of the biofilm in a static model by means of the crystal violet assay as described above in section 1.
(§5) The control used was sterile RPMI-1640. Then delphinidin in solution in RPMI-1640 was added, from a dilution series produced beforehand, and the cell culture dish was incubated at 37° C. for 48 hours, the visual outcome thereof being shown in FIG. 2. The color change from (phenol) red to yellow correlates with the extent of the bacterial growth.
(§6) Scrapes of the bacteria from the culture dish are shown in FIG. 3 (P. aeruginosa ATCC9027), 4 (K. pneumoniae ATCC700603), 5 (MRSA2318), 6 (MRSA2855) and 7 (MSSA1155). “ST 26.1.11” and “ST 28.1.11” in the case of the scrapes on the agar plates refers to the respective scraping date of the duplicated experiments.

[4] = tested on: Klebsiella pneumoniae ATCC700603; assay: as above; type: cell-based; settings: K. pneumoniae; RPMI-1640, 37° C., 48 hours
From the text: (§7) Klebsiella pneumoniae ATCC700603 biofilm-positive clinical isolate from urine from an ESBL+(Extended Spectrum Beta-Lactamase) hospital patient (reference strain);
as §4, §5, §6

[5] = tested on: Staphylococcus aureus MRSA2318, MRSA2855, MSSA1155; assay: as above; type: cell-based; settings: S. aureus (both MSSA and MRSA); RPMI-1640, 37° C., 48 hours
From the text: (§8) Staphylococcus aureus MRSA2318 biofilm-positive clinical isolate from tracheal secretion of 22.04.2009 (Würzburg University Hospital, neurosurgical clinic and polyclinic I, intensive therapy unit); • Staphylococcus aureus MRSA2855 biofilm-positive clinical isolate from blood culture of 22.04.2009 (Würzburg University Hospital, medical clinic and polyclinic I, ITU); • Staphylococcus aureus MSSA1155 biofilm-positive clinical isolate from 27.04.2004 from abdominal cavity scrape (Würzburg University clinic, urology, unit B).
as §4, §5
Scrapes of the bacteria from the culture dish are shown in FIG. 3 (P. aeruginosa ATCC9027), 4 (K. pneumoniae ATCC700603), 5 (MRSA2318), 6 (MRSA2855) and 7 (MSSA1155). […]

[6] = tested on: Staphylococcus aureus MRSA2318, MRSA2855, MSSA1155; assay: Biofilm formation, static model, crystal violet assay; type: cell-based; settings: S. aureus (both MSSA and MRSA), RPMI-1640, 37° C., 48 hours
From the text: as §8, §2, §4
The control used was sterile RPMI-1640. […]

[7] = tested on: Klebsiella pneumoniae ATCC700603; assay: as above; type: cell-based; settings: K. pneumoniae, RPMI-1640, 37° C., 48 hours
Procedure: as §7
The growth and the analysis of the biofilm were determined in a static model by means of the crystal violet assay according to basic protocol 1 in Current Protocols in Microbiology 1B.1.2-1B.1.4 “MICROTITER PLATE BIOFILM ASSAY” [published online August 2011 in Wiley Online Library (wileyonlinelibrary.com) DOI: 10.1002/9780471729259. mc01b01s22]. […]
as §3

[8] = Stability tests in aqueous solution (delphinidin content by HPLC); type: physicochemical; settings: 0.9% NaCl solution, 37° C., dark, start 1.584 mg/ml (complex) or 0.0216 mg/ml (uncomplexed)
Procedure: The delphinidin chloride content of the delphinidin-containing solutions was determined using a reversed-phase HPLC technique similar to that already described above. The following reagents were employed here:
The solutions were prepared at room temperature and then stored in closed vials in the dark at 37° C.
The delphinidin content was determined after 1, 2, 3, and 4 h. The table below reports the content found, as a percentage of the abovementioned starting concentration.

Row | Compound | Delphinidin chloride (solubility achievable) [1] [µg/mL] | Effect on formation of biofilm [2] | Effect on growth [3] | Effect on growth [4] | Effect on growth [5] | Effect on formation of biofilm [6] | Effect on formation of biofilm [7] | Delphinidin content as a percentage of the starting concentration ([8]; 0 h) [%] | Delphinidin content as a percentage of the starting concentration ([8]; 1 h) [%] | Delphinidin content as a percentage of the starting concentration ([8]; 2 h) [%] | Delphinidin content as a percentage of the starting concentration ([8]; 3 h) [%] | Delphinidin content as a percentage of the starting concentration ([8]; 4 h) [%]
1 | Oc1cc(O)c2cc(O)c(-c3cc(O)c(O)c(O)c3)[o+]c2c1.[Cl-] [Delphinidin chloride, delphinidin chloride] | 70 | – | – | – | – | – | – | – | – | – | – | –
2 | Oc1cc(O)c2cc(O)c(-c3cc(O)c(O)c(O)c3)[o+]c2c1 [Delphinidin] | – | no inhibiting effect | no inhibiting effect | no inhibiting effect | inhibiting effect | inhibiting effect | no inhibiting effect; also recorded: appears still to be being stimulated | 100 | 8.3 | 6.5 | 5.6 | 5.1
